Measured values published in patent publication US20260022142A1, “MACROCYCLIC IMMUNOMODULATORS” (Bristol-Myers Squibb Company, priority 2022, published 2026).
Numbered stars: 1 amine (or outer) side, 2 acyl side, 3 side chain; on linkers, the order of the positions; unused ones are H or OH. Bridge positions count the residues as written; N and C are the ends. Square brackets hold non-standard residues; d marks the D form. Peptide text beside a SMILES is read from it. * marks the point of attachment. ξ: configuration not given here. Phe(3-CF3) = N[C@@H](Cc1cccc(C(F)(F)F)c1)C(=O)O; Phe(4-COOH) = N[C@@H](Cc1ccc(C(=O)O)cc1)C(=O)O; Bip = N[C@@H](Cc1ccc(-c2ccccc2)cc1)C(=O)O; Phe(3-Me) = Cc1cccc(C[C@H](N)C(=O)O)c1; γGlu = O=C(O)[C@H](CCC(=O)[*:2])N[*:1]; NH(CH2)12COOH = O=C(O)CCCCCCCCCCCCN*; PEG6 = NCCOCCOCCOCCOCCOCCOCCC(=O)O; Val(3-OH) = CC(C)(O)[C@H](N)C(=O)O; 4Pal = N[C@@H](Cc1ccncc1)C(=O)O; Cha = N[C@@H](CC1CCCCC1)C(=O)O; Cit = NC(=O)NCCC[C@H](N)C(=O)O; Thr(3ξ) = CC(O)[C@H](N)C(=O)O; 12Ado = NCCCCCCCCCCCC(=O)O; Carboxymethyl = O=C(O)C*; Orn = NCCC[C@H](N)C(=O)O; Aun = NCCCCCCCCCCC(=O)O; Dab = NCC[C@H](N)C(=O)O; Nva = CCC[C@H](N)C(=O)O; Abu = CC[C@H](N)C(=O)O; Dap = NC[C@H](N)C(=O)O; AEEA = NCCOCCOCC(=O)O; ξDab = NCCC(N)C(=O)O

These compounds were tested against T1, PD-1/PD-L1 interaction (PE-labeled human PD-L1-Ig binding to Jurkat cell line over-expressing human PD-1) (Homo sapiens, UniProt Q15116) (assay: Jurkat-PD-1 Cell Binding High-Content Screening Assay (CBA)). Conditions: Jurkat cell line over-expressing human PD-1; PE-labeled PD-L1-Ig 20 nM final; read-out: Jurkat hPD1-PDL1 IC50.
T1 construct: expressed in transfected cells; host or cells: Jurkat
Type: cell-based
In short: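 First, compound is added to PD-1-expressing Jurkat cells in serum-containing DMEM and left 2 h at 37° C. Next, PE-conjugated PD-L1-Ig is introduced at 20 nM final concentration for 1 hour. Finally, cells are fixed in 4% paraformaldehyde with Hoechst 33342, washed and imaged.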

T1 sequence (Q15116 25-288): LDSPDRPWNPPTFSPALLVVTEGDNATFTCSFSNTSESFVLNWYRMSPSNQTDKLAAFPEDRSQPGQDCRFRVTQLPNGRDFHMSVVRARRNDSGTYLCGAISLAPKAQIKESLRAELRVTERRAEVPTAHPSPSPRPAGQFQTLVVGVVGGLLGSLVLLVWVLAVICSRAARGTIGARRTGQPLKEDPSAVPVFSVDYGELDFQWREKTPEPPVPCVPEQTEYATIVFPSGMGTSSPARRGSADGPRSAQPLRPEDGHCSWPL

SMILES | IC50 [nM]
CC[C@@H]1NC(=O)CSC[C@@H](C(=O)N[C@@H](CCN)C(=O)NCCOCCOCC(=O)N[C@@H](CCC(=O)NCCOCCOCC(=O)NCCCCCCCCCCCCC(=O)O)C(=O)O)NC(=O)[C@H](CO)NC(=O)[C@H](C(C)(C)O)NC(=O)[C@H](CC2CCCCC2)NC(=O)[C@H](CCN)NC(=O)[C@@H](CC(C)C)NC(=O)[C@H](CCCN)NC(=O)[C@H](Cc2ccc(C(=O)O)cc2)NC(=O)[C@H](Cc2ccc(-c3ccccc3)cc2)NC(=O)[C@H](Cc2ccc(C(=O)O)cc2)NC(=O)[C@H](Cc2cccc(C(F)(F)F)c2)NC(=O)[C@H](CC(=O)O)NC(=O)[C@H](Cc2ccc(OCC(=O)O)cc2)NC1=O [Compound 2932] ({CH2CO}-[Abu]Y(Carboxymethyl)D[Phe(3-CF3)][Phe(4-COOH)][Bip][Phe(4-COOH)][Orn][dL][Dab][Cha][Val(3-OH)]SC[Dab][AEEA][γGlu][AEEA]-{NH(CH2)12COOH}; thioether N-14) | 33
Cc1cccc(C[C@@H]2NC(=O)[C@H](CC(=O)O)NC(=O)[C@H](Cc3ccc(OCC(=O)O)cc3)NC(=O)[C@H](CCN)NC(=O)CSC[C@@H](C(=O)N[C@@H](CCN)C(=O)NCCOCCOCC(=O)NCCOCCOCC(=O)NCCCCCCCCCCCCC(=O)O)NC(=O)[C@H](CO)NC(=O)[C@H](C(C)(C)O)NC(=O)[C@H](CC3CCCCC3)NC(=O)[C@H](Cc3c[nH]cn3)NC(=O)[C@@H](CC(C)C)NC(=O)[C@H](CCCN)NC(=O)[C@H](Cc3ccc(C(=O)O)cc3)NC(=O)[C@H](Cc3ccc(-c4ccccc4)cc3)NC(=O)[C@H](Cc3ccc(C(=O)O)cc3)NC2=O)c1 [Compound 2887] ({CH2CO}-[Dab]Y(Carboxymethyl)D[Phe(3-Me)][Phe(4-COOH)][Bip][Phe(4-COOH)][Orn][dL]H[Cha][Val(3-OH)]SC[Dab][AEEA][AEEA]-{NH(CH2)12COOH}; thioether N-14) | 18.4
Cc1cccc(C[C@@H]2NC(=O)[C@H](CC(=O)O)NC(=O)[C@H](Cc3ccc(OCC(=O)O)cc3)NC(=O)[C@H](CN)NC(=O)CSC[C@@H](C(=O)N[C@@H](CCN)C(=O)NCCCCCCCCCCC(=O)O)NC(=O)[C@H](CCC(=O)O)NC(=O)[C@H](C(C)C)NC(=O)[C@H](CC3CCCCC3)NC(=O)[C@H](CCN)NC(=O)[C@@H](CC(C)C)NC(=O)[C@H](CCCN)NC(=O)[C@H](Cc3ccc(OCC(=O)O)cc3)NC(=O)[C@H](Cc3ccc(-c4ccccc4)cc3)NC(=O)[C@H](Cc3ccc(OCC(=O)O)cc3)NC2=O)c1 [Compound 1245] ({CH2CO}-[Dap]Y(Carboxymethyl)D[Phe(3-Me)]Y(Carboxymethyl)[Bip]Y(Carboxymethyl)[Orn][dL][Dab][Cha]VEC[Dab][Aun]-OH; thioether N-14) | 35.1
Cc1cccc(C[C@@H]2NC(=O)[C@H](CC(=O)O)NC(=O)[C@H](Cc3ccc(OCC(=O)O)cc3)NC(=O)[C@H](Cc3ccc(OCC(=O)O)cc3)NC(=O)CSC[C@@H](C(=O)NC(CCN)C(=O)NCCCCCCCCCCCC(=O)O)NC(=O)[C@H](C(C)O)NC(=O)[C@H](C(C)C)NC(=O)[C@H](CC3CCCCC3)NC(=O)[C@H](Cc3cnc[nH]3)NC(=O)[C@@H](CC(C)C)NC(=O)[C@H](CCCN)NC(=O)[C@H](CCCNC(N)=O)NC(=O)[C@H](Cc3ccc(-c4ccccc4)cc3)NC(=O)[C@H](C(C)C)NC2=O)c1 (stereo partly drawn) [Compound 3502] ({CH2CO}-Y(Carboxymethyl)Y(Carboxymethyl)D[Phe(3-Me)]V[Bip][Cit][Orn][dL]H[Cha]V[Thr(3ξ)]C[ξDab][12Ado]-OH; thioether N-14) | 63.1
CC(C)C[C@H]1NC(=O)[C@H](CCCN)NC(=O)[C@H](Cc2ccc(O)cc2)NC(=O)[C@H](Cc2ccc(-c3ccccc3)cc2)NC(=O)[C@H](C(C)C)NC(=O)[C@H](Cc2c[nH]c3ccccc23)NC(=O)[C@H](CC(=O)O)NC(=O)[C@H](Cc2ccncc2)NC(=O)[C@H](Cc2ccc(OCC(=O)O)cc2)NC(=O)CSC[C@@H](C(=O)N[C@@H](CCN)C(=O)NCCCCCCCCCCC(=O)O)NC(=O)[C@H]([C@@H](C)O)NC(=O)[C@H](C(C)C)NC(=O)[C@H](CC2CCCCC2)NC(=O)[C@H](CCN)NC1=O [Compound 2746] ({CH2CO}-Y(Carboxymethyl)[4Pal]DWV[Bip]Y[Orn][dL][Dab][Cha]VTC[Dab][Aun]-OH; thioether N-14) | 48.6

Now those with a lower IC50, led by results:

IC50 [nM] | SMILES
12.8 | Cc1cccc(C[C@@H]2NC(=O)[C@H](CC(=O)O)NC(=O)[C@H](Cc3ccc(OCC(=O)O)cc3)NC(=O)[C@H](Cc3ccncc3)NC(=O)CSC[C@@H](C(=O)N[C@@H](CCN)C(=O)NCCCCCCCCCCC(=O)O)NC(=O)[C@H](CO)NC(=O)[C@H](C(C)(C)O)NC(=O)[C@H](CC3CCCCC3)NC(=O)[C@H](CCN)NC(=O)[C@@H](CC(C)C)NC(=O)[C@H](CCCN)NC(=O)[C@H](Cc3ccc(OCC(=O)O)cc3)NC(=O)[C@H](Cc3ccc(-c4ccccc4)cc3)NC(=O)[C@H](Cc3ccc(OCC(=O)O)cc3)NC2=O)c1 [Compound 2215] ({CH2CO}-[4Pal]Y(Carboxymethyl)D[Phe(3-Me)]Y(Carboxymethyl)[Bip]Y(Carboxymethyl)[Orn][dL][Dab][Cha][Val(3-OH)]SC[Dab][Aun]-OH; thioether N-14)
15.1 | Cc1cccc(C[C@@H]2NC(=O)[C@H](CC(=O)O)NC(=O)[C@H](Cc3ccc(OCC(=O)O)cc3)NC(=O)[C@H](CN)NC(=O)CSC[C@@H](C(=O)N[C@@H](CCN)C(=O)NCCCCCCCCCCC(=O)O)NC(=O)[C@H]([C@@H](C)O)NC(=O)[C@H](C(C)C)NC(=O)[C@H](CC3CCCCC3)NC(=O)[C@H](CCN)NC(=O)[C@@H](CC(C)C)NC(=O)[C@H](CCN)NC(=O)[C@H](Cc3ccc(OCC(=O)O)cc3)NC(=O)[C@H](Cc3ccc(-c4ccccc4)cc3)NC(=O)[C@H](Cc3ccc(O)cc3)NC2=O)c1 [Compound 2087] ({CH2CO}-[Dap]Y(Carboxymethyl)D[Phe(3-Me)]Y[Bip]Y(Carboxymethyl)[Dab][dL][Dab][Cha]VTC[Dab][Aun]-OH; thioether N-14)
6.4 | CCC[C@@H]1NC(=O)CSC[C@@H](C(=O)N[C@@H](CCN)C(=O)NCCCCCCCCCCC(=O)O)NC(=O)[C@H](CO)NC(=O)[C@H](C(C)(C)O)NC(=O)[C@H](CC2CCCCC2)NC(=O)[C@H](CCN)NC(=O)[C@@H](CC(C)C)NC(=O)[C@H](CCCN)NC(=O)[C@H](Cc2ccc(OCC(=O)O)cc2)NC(=O)[C@H](Cc2ccc(-c3ccccc3)cc2)NC(=O)[C@H](Cc2ccc(OCC(=O)O)cc2)NC(=O)[C@H](Cc2cccc(C)c2)NC(=O)[C@H](CC(=O)O)NC(=O)[C@H](Cc2ccc(C(=O)O)cc2)NC1=O [Compound 2178] ({CH2CO}-[Nva][Phe(4-COOH)]D[Phe(3-Me)]Y(Carboxymethyl)[Bip]Y(Carboxymethyl)[Orn][dL][Dab][Cha][Val(3-OH)]SC[Dab][Aun]-OH; thioether N-14)
11.5 | Cc1cccc(C[C@@H]2NC(=O)[C@H](CC(=O)O)NC(=O)[C@H](Cc3ccc(OCC(=O)O)cc3)NC(=O)[C@H](CN)NC(=O)CSC[C@@H](C(=O)NCCOCCOCC(=O)N[C@@H](CCN)C(=O)NCCCCCCCCCCC(=O)O)NC(=O)[C@H](CCCN)NC(=O)[C@H](C(C)C)NC(=O)[C@H](CC3CCCCC3)NC(=O)[C@H](CCN)NC(=O)[C@@H](CC(C)C)NC(=O)[C@H](CCCN)NC(=O)[C@H](CCC(=O)O)NC(=O)[C@H](Cc3ccc(-c4ccccc4)cc3)NC(=O)[C@H](C(C)C)NC2=O)c1 [Compound 2659] ({CH2CO}-[Dap]Y(Carboxymethyl)D[Phe(3-Me)]V[Bip]E[Orn][dL][Dab][Cha]V[Orn]C[AEEA][Dab][Aun]-OH; thioether N-14)
8.9 | Cc1cccc(C[C@@H]2NC(=O)[C@H](CC(=O)O)NC(=O)[C@H](Cc3ccc(OCC(=O)O)cc3)NC(=O)[C@H](CN)NC(=O)CSC[C@@H](C(=O)NCCOCCOCC(=O)N[C@@H](CCCCN)C(=O)NCCCCCCCCCCC(=O)O)NC(=O)[C@H](CCCN)NC(=O)[C@H](C(C)C)NC(=O)[C@H](CC3CCCCC3)NC(=O)[C@H](CCN)NC(=O)[C@@H](CC(C)C)NC(=O)[C@H](CCCN)NC(=O)[C@H](C(C)C)NC(=O)[C@H](Cc3ccc(-c4ccccc4)cc3)NC(=O)[C@H](C(C)C)NC2=O)c1 [Compound 2597] ({CH2CO}-[Dap]Y(Carboxymethyl)D[Phe(3-Me)]V[Bip]V[Orn][dL][Dab][Cha]V[Orn]C[AEEA]K[Aun]-OH; thioether N-14)
11.5 | Cc1cccc(C[C@@H]2NC(=O)[C@H](CC(=O)O)NC(=O)[C@H](Cc3ccc(OCC(=O)O)cc3)NC(=O)[C@H](CCCNC(=N)N)NC(=O)CSC[C@@H](C(=O)NCCOCCOCC(=O)N[C@@H](CCN)C(=O)NCCCCCCCCCCC(=O)O)NC(=O)[C@H](CN)NC(=O)[C@H](C(C)C)NC(=O)[C@H](CC3CCCCC3)NC(=O)[C@H](CCN)NC(=O)[C@@H](CC(C)C)NC(=O)[C@H](CCCN)NC(=O)[C@H](C(C)C)NC(=O)[C@H](Cc3ccc(-c4ccccc4)cc3)NC(=O)[C@H](C(C)C)NC2=O)c1 [Compound 3220] ({CH2CO}-RY(Carboxymethyl)D[Phe(3-Me)]V[Bip]V[Orn][dL][Dab][Cha]V[Dap]C[AEEA][Dab][Aun]-OH; thioether N-14)
6.4 | CC(C)C[C@H]1NC(=O)[C@H](CCCN)NC(=O)[C@H](CCC(=O)O)NC(=O)[C@H](Cc2ccc(-c3ccccc3)cc2)NC(=O)[C@H](C(C)C)NC(=O)[C@H](Cc2c[nH]c3ccccc23)NC(=O)[C@H](CC(=O)O)NC(=O)[C@H](Cc2ccc(C(=O)O)cc2)NC(=O)[C@H](Cc2ccc(OCC(=O)O)cc2)NC(=O)CSC[C@@H](C(=O)N[C@@H](CC(N)=O)C(=O)NCCOCCOCCOCCOCCOCCOCCC(=O)N[C@@H](CCCN)C(=O)NCCCCCCCCCCCC(=O)O)NC(=O)[C@H](CO)NC(=O)[C@H](C(C)C)NC(=O)[C@H](CC2CCCCC2)NC(=O)[C@H](CCN)NC1=O [Compound 3045] ({CH2CO}-Y(Carboxymethyl)[Phe(4-COOH)]DWV[Bip]E[Orn][dL][Dab][Cha]VSCN[PEG6][Orn][12Ado]-OH; thioether N-14)
